Data on eight compounds can be found in patent US11479536B1 (King Abdulaziz University, priority 2022, dated 2022).

For series [1], the system named is T47D spheroids. Put plainly: Cytotoxicity assay (MTT) in spheroid culture, T47D. The class given is cell-based, human. On the procedure:
(§1) 1×10^4 cells of each cell line (MCF7 and T47D) were seeded into ultra-low attachment 96 well plate at 37° C. and grown for 48 hours in DMEM media to result in the formation of spheroids. Then, the cells were subjected to the different treatment conditions before performing the assays.
(§2) The cytotoxic effects of MAK compounds were assessed against MCF7 and T47D cell lines using MTT cell viability assay. The cells were treated for 48 hours with different concentrations of each MAK compound and the control cells were subjected to the vehicle (0.1% DMSO). Then, 10% of 5 mg/mL MTT was added to each well containing treated or control cells, and mixture was incubated at 37° C. for 3 hours. After that, the MTT-containing media was replaced with 100 μL DMSO and incubated for 10 minutes at room temperature before measuring the absorbance for each well at 570 nm. According to the measured absorbance, the IC50 was calculated for each compound. All the experiments were performed in biological and experimental replicates.

In series [2] the test system is T47D spheroids. Put plainly: Live and dead assay of tumor spheroids, T47D. Type of series: cell-based, human. Particulars: 48 h post treatment, control 2.60±0.31%. The procedure: (§3) The Live/Dead assay contains a mixture of two staining fluorescent dyes that label live and dead cells to enable differentiation between them. The cell viability of the cells in response to the treatment with MAK compounds was examined. The cells were grown for 48 hours and treated with MAK compound for additional 48 hours, then Cytox RED solution reagent was added. After incubation at 37° C. under 5% CO2 for 1 hour, the samples were immediately analyzed by flow cytometry. Mean values and standard deviation of replicates were calculated in comparison to the control group.

For series [3], the system named is MCF7 spheroids. Put plainly: Live and dead assay of tumor spheroids, MCF7. The class given is cell-based, human. Particulars: 48 h post treatment, control 10.33±2.40%. The procedure: as §3
Series [4] concerns MCF7 spheroids. Description: Reactive oxygen species (CellROX) assay, MCF7 spheroids. Type of series: cell-based, human. The note with it: 48 h treatment, CellROX Green. The procedure:
(§4) The CELLROX (Invitrogen) assay was used to measure the level of reactive oxygen species (ROS) in live cells. […] The technique was used to investigate the capability of tested compounds to induce intracellular ROS. After forming the spheroids for 48 hours and treating them for additional 48 hours with MAK compound, spheroids were incubated in culture medium with 500 nM CellROX for 60 minutes at 37° C. in presence of 5% CO2, and the samples were immediately analyzed on flow cytometry using 488-nm excitation for the CellROX® Green.

In series [5] the test system is MCF7 spheroids. Description: Mitochondrial membrane potential assay (JC-1), MCF7 spheroids. Type of series: cell-based, human. The note with it: 48 h post treatment at IC50, control 18.01±0.58%. The procedure: (§5) The mitochondrial membrane potential was investigated in response to the treatment with MAK compounds. This assay depends on the measurement of the aggregate fluorescence for Tetraethylbenzimidazolylcarbocyanine iodide (JC-1). This cationic dye accumulates in the energized mitochondria, and the increase in aggregate fluorescence indicates mitochondrial […] while the reduction indicates the depolarization state.
(§6) After growing the cells and treating them with MAK compound for 48 hours, 2 μM of JC-1 final concentration was added and the mixture was incubated for 1 hour at 37° C. in presence of 5% CO2. Then, the samples were analyzed using flow cytometry. Mean values and standard deviation of replicates were calculated in comparison to the control group.

The test system of series [6] is T47D spheroids. Put plainly: Mitochondrial membrane potential assay (JC-1), T47D spheroids. The note with it: 48 h post treatment at IC50, control 15.67±2.05%. The class given is cell-based, human. On the procedure: as §5, §6
The target of a further series is T1, AMPK (A1/B1/G2) (Homo sapiens, UniProt Q13131+Q9UGJ0+Q9Y478).
T1 construct: This system includes a recombinant full-length human AMPK enzyme; purchased Promega
T1 sequence (Q13131 whole entry): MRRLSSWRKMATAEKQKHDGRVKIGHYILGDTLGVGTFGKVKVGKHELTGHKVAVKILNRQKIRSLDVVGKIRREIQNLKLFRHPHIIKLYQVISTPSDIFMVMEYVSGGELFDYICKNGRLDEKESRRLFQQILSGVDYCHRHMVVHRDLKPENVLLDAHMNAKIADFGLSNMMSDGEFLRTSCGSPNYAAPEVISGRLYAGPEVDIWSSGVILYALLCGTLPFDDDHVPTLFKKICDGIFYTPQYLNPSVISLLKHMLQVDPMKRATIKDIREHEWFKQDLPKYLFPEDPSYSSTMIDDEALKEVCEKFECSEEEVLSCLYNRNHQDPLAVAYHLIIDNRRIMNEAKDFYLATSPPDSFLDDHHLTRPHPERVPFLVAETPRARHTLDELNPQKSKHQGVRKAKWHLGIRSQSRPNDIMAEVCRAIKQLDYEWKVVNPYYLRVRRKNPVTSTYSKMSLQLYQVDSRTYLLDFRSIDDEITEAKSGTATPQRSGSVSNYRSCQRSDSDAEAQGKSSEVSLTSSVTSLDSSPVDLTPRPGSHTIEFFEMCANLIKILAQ
T1 sequence (Q9Y478 whole entry partner): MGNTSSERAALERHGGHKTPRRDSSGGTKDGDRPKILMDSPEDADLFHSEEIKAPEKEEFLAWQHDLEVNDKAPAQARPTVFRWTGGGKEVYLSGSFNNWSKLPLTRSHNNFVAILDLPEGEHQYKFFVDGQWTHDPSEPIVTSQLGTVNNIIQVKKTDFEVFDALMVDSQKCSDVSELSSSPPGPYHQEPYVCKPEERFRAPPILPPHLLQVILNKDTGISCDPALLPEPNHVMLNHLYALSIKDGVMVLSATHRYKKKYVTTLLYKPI
T1 sequence (Q9UGJ0 whole entry partner): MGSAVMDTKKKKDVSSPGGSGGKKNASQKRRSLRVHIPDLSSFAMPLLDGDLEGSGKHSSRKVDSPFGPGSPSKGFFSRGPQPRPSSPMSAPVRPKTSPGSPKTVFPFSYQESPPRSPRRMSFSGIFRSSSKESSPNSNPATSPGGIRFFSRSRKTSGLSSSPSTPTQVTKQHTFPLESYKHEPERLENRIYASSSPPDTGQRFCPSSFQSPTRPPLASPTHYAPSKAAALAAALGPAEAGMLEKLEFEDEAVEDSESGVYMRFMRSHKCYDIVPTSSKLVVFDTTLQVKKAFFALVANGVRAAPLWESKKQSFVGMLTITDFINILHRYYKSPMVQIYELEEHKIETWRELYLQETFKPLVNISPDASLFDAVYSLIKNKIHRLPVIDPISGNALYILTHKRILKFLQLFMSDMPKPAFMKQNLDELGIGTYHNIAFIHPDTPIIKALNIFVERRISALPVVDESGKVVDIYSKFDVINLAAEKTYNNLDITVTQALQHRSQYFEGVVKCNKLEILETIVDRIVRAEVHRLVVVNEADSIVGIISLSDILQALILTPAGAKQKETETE
Description: Cell-free AMPK inhibition assay, AMPK (A1/B1/G2) Kinase Enzyme system. The class given is biochemical. Particulars: recombinant full-length human AMPK. The procedure:
The inhibitory effect of serial concentrations of MAK compounds on AMPK Kinase activity was investigated using the highly sensitive AMPK (A1/B1/G2) Kinase Enzyme assay system (Promega, Madison Wis. USA). This system includes a recombinant full-length human AMPK enzyme and a substrate for the enzyme. The experiment was conducted according to the manufacturer's instructions in the provided protocol. Mean values of replicates were calculated in comparison to the control group.

For another series, the system named is MCF7 cell line. Put plainly: Cytotoxic assay (MTT) in monolayer model, MCF7. Type of series: cell-based. The note with it: Homo sapiens, 48 h, read-out: IC50 MCF-7 cell line inhibition, monolayer. The procedure:
(§7) 1×10^6 cells of the human breast cancer cell lines MCF7 and T47D were seeded and grown at 37° C. with 5% CO2, in a Dulbecco's Modified Eagle Medium (DMEM) with 10% fetal bovine serum (Sigma). The cells were maintained until they reached the confluence over 90%. Then, the cells were subjected to the different treatment conditions before performing the assays.
as §2

The test system of series [7] is MCF7 spheroids. Put plainly: Cytotoxicity assay (MTT) in spheroid culture, MCF7. The class given is cell-based, human. The procedure:
as §1, §2

In a further series the test system is T47D cell line. Description: Cytotoxic assay (MTT) in monolayer model, T47D. Particulars: Homo sapiens, 48 h, read-out: IC50 cytotoxic assay against T47D, monolayer. The class given is cell-based. The procedure: as §7, §2
Series [8] relates to human skin fibroblasts (HSF). Description: Cytotoxicity on human skin fibroblasts (SRB method). The class given is cell-based. Particulars: HSF, SRB, 72 h. On the procedure: In addition to have a good physicochemical profile, it is important for a studied lead to differentiate between cancer cells and highly proliferating non-cancerous cells. Therefore, we assessed compounds MAK-1 and MAK-6 for both the in silico and in vitro physicochemical characteristics as well as for cytotoxic effect on human skin fibroblasts (SKF) cell lines. Cytotoxicity was determined using Sulforhodamine B (SRB) method. Exponentially growing human skin fibroblast cells (Nawah Scientific, Cairo, Egypt) were collected using 0.25% Trypsin-EDTA and were then seeded in 96-well plates at a density of 1000-2000 cells/well in 10% FBS and penicillin/streptomycin supplemented RPMI-1640 medium. After 24 h, cells were treated with different concentrations of test compounds and incubated for 72 h at 37° C. in a humidified atmosphere containing 5% CO2. Next, the cells were fixed by adding trichloroacetic acid (TCA, 10% final conc. in wells) directly to the wells and incubated for 1 h at 4° C., then cells were washed with distilled water 5 times to remove excess TCA, media, serum proteins, and metabolites, followed by air drying. After that, the fixed cells were stained with 0.4% SRB dissolved in 1% acetic acid for 10 min at room temperature, and excess stain was removed by quickly rinsing with 1% acetic acid. The residual acetic acid was removed completely by air drying the plates for 24 h, and the dye was solubilized with Tris buffer (pH=7.4, 10 mM) for 5 min on a shaker at 1600 rpm. The optical density (OD) of each well was measured spectrophotometrically at 564 nm with an ELISA microplate reader (ChroMate-4300, FL, USA). The IC50 values were calculated according to the equation for Boltzman sigmoidal concentration—response curve using the nonlinear regression fitting models (Graph Pad, Prism Version 5).
In general terms: The SRB assay estimates cell density from bound dye.

Series [9] deals with T47D spheroids. Put plainly: Reactive oxygen species (CellROX) assay, T47D spheroids. The class given is cell-based, human. The note with it: 48 h treatment, CellROX Green. The procedure: as §4
Another series has as its system AMPK (phospho-protein). The note with it: concentration not given; cited from earlier work.
For another series, the system named is MCF7 cell lines. Description: Cytotoxic assays of KAC-12 on breast cancer MCF7 cell lines. Type of series: cell-based, human.

“And” between values parts separate entries of the source, which are not always exact repeats. Identical values can stand only once.

As to `COc1cccc(C(=O)Nc2cccnc2CC(=O)NCc2ccccc2)c1`, the IC50 (as a rule, the concentration needed to halve the response being measured) with T47D spheroids [1] (Homo sapiens, T47D, 3D spheroid model, 48 h, MTT) worked out at 3720 ± 30 nM; on AMPK (A1/B1/G2), 5.8 nM; with MCF7 cell line, 148 nM; in the series with MCF7 spheroids [7] (Homo sapiens, MCF7, 3D spheroid model, 48 h, MTT), 19600 ± 525 nM; in the series with T47D cell line, 97 nM. Further, the “reduction of spheroid size” value in the series with T47D spheroids [1] (T47D spheroids treated at IC50 for 48 h, vs control) is recorded as “noticeable reduction”; in the series on MCF7 spheroids [7] (MCF7 spheroids treated at IC50 for 48 h, vs control), “noticeable reduction”. Further, the results for the “dead rate (dead cells), mean±SEM” value in the series with T47D spheroids [2] and in the series on MCF7 spheroids [3] were 32.10±0.56% and 36.48±0.39%, respectively. The “ROS level, treatment vs control” value is on record as 25% with MCF7 spheroids [4] and 30% with T47D spheroids [9]. For the same compound, the “depolarized cells (mitochondrial membrane), mean±SEM” value in the series on MCF7 spheroids [5] was determined as 34.00±0.87%; with T47D spheroids [6], 36.77±0.65%. For the same compound, in [8], the “safety to normal cells (human skin fibroblasts)” value was “highly safe”.
For the compound `O=C(Cc1ccc(NC(=O)c2cccc(Cl)c2)cc1)NCc1ccccc1` [KAC-12], in the series with AMPK (phospho-protein), the “downregulation of the activated AMPK signal (phosphoprotein)” value is 15% and 13%. In the series with MCF7 cell lines, this compound had an IC50 of 47700 nM.
As for `COc1ccc(C(=O)Nc2ccc(CC(=O)NCc3ccccc3)cc2)cc1OC` [MAK-2, N-(4-(2-(benzylamino)-2-oxoethyl)phenyl)-3,4-dimethoxybenzamide], the melting point (in general, the temperature of the solid-liquid transition) amounted to 215 °C. The IC50 with MCF7 cell line stood at 6 nM.
Take `O=C(Cc1ccc(NC(=O)c2cccc(OCCN3CCOCC3)c2)cc1)NCc1ccccc1` [MAK-3, N-(4-(2-(benzylamino)-2-oxoethyl)phenyl)-3-(2-morpholinoethoxy)benzamide]: the IC50 in the series with T47D cell line was determined as 1 nM.
`COc1ccc(C(=O)Nc2ccc(CC(=O)NCc3ccccc3)cc2)cc1Cl` [MAK-4, N-(4-(2-(benzylamino)-2-oxoethyl)phenyl)-3-chloro-4-methoxybenzamide] yielded a melting point of 186 °C. The half-maximal inhibitory concentration (IC50) in the series on MCF7 cell line was 225 nM.
With `O=C(Cc1ccc(NC(=O)c2ccc(OCCN3CCOCC3)c(Cl)c2)cc1)NCc1ccccc1` [MAK-5, N-(4-(2-(benzylamino)-2-oxoethyl)phenyl)-3-chloro-4-(2-morpholinoethoxy)benzamide], the melting point was found to be 147 °C.
For `O=C(Cc1ccc(NC(=O)c2cncc(Cl)c2)cc1)NCc1ccccc1` [MAK-9, N-(4-(2-(benzylamino)-2-oxoethyl)phenyl)-5-chloronicotinamide], the melting point amounted to 231 °C.
`O=C(Cc1ccc(NC(=O)c2ccc(Cl)o2)cc1)NCc1ccccc1` [MAK-10, N-(4-(2-(benzylamino)-2-oxoethyl)phenyl)-5-chlorofuran-2-carboxamide] gave a melting point of 217 °C. For the same compound, the half-inhibitory concentration (IC50) in the series with MCF7 cell line was determined as 225 nM.
